In assay [1] the target is T1, GSNOR enzyme (Homo sapiens, UniProt P11766). Briefly: GSNOR inhibition assay (rate of NADH consumption, 340 nm absorbance). The class given is biochemical. How it is done:
The following compounds were also prepared based on the methods described herein, using the appropriate starting materials. Table 2a and Table 2b also provides the % GSNOR inhibition at 20 μM of compounds described herein. […] The buffer was 100 mM phosphate buffer (pH 7.4.) The rate of NADH consumption for each well was determined by ultraviolet spectroscopy. Plates were read on a Molecular Devices Spectra Max UV/Visible Spectrophotometer/plate reader and the change in 340 nm absorbance at 25° C. was recorded for each well at 10 sec intervals over the duration of the recording period (2˜5 minutes). The rate was measured from the linear portion of the curve. Final test compound concentration was 20 μM. The mean % inhibition from 3 test compound wells and 5 control wells was measured as the percentage of the mean no compound+enzyme−the mean no enzyme, no compound control.

Assay [2] deals with IL-6. The assay can be described thus: LPS/cytokine assay (mouse inflammation assay), IL-6. As to conditions: for LPS/IL6 Lowest tested active: CD-1 male mice, IP or IV, cytokine typically 6 hrs after LPS. The class given is in vivo, CD-1 male mice. The protocol:
Table 2b also includes additional biological data of compounds described herein. The LPS/cytokine Assay was carried out in CD-1 male mice. The assay measured the level of various cytokines, including IL-6, IL-17, and IL-23, after induction by bacterial liposaccharide (LPS). Compounds were dosed by IP or IV routes of administration at varying times before and after LPS and the cytokine concentrations were measured at varying times, typically 6 hrs, after LPS by standard methods using ELISA kits.
BIOLOGICAL TESTING: Compounds 10 and 17 from Table 1 were tested in a mouse inflammation assay. Briefly, CD-1 mice were dosed with compound, 12 hrs before injecting mice I.P. with the potent cytokine inducer, bacterial lipopolysaccharide (LPS). The mice were euthanized 6 hrs after the LPS was injected and their serum prepared by standard methods. The concentration of IL-6 in the serum of each experimental animal was measured using an IL-6 ELISA kit from Enzo. The compounds tested were active.
This LPS/cytokine assay was carried out in healthy mice and measured the level of cytokine IL-6, IL-17, and 23 induction by LPS. Compounds are dosed (either orally (“p.o.”) or intravenously (“i.v.”) at varying times before and after LPS, and the cytokines are measured at varying times after LPS. The effect of the tested compounds (Table 5) on IL-6 release is shown in FIG. 7. The effect of the tested compounds (Table 6) on IL-17 an IL-23 release is shown in FIG. 11 and FIG. 12, respectively.

The target of assay [3] is T1, GSNOR enzyme. The assay can be described thus: GSNOR inhibition assay (rate of NADH consumption, 340 nm absorbance). The note with it: Table 2b; read-out: IC50 Micromolar. It is filed as biochemical.
Assay [4] has as its system Bleomycin-induced idiopathic pulmonary fibrosis model in male C57BL/6 mice. Briefly: Bleomycin-induced idiopathic pulmonary fibrosis model. The note with it: 100 mg/kg, p.o., b.i.d., from day 14 to 28. The class given is in vivo. How it is done: Compound 17 was made-up fresh every 4 days. A required amount of the test compound was weighed in a glass vial and the purity factor was calculated. A stock solution of 1 mg/ml (10 mg/kg) was made in distilled water (pH 8) and the subsequent 3 and 1 mg/kg doses (concentrations) were obtained by serial dilution of the 1 mg/ml stock solution. A clear and transparent solution was observed. Animals were dosed with Compound 17 at 1 mg/kg, 3 mg/kg and 10 mg/kg, i.p (intraperitoneal), once daily from day 14 to 28.
Pirfenidone was weighed in a glass vial and suspended in 0.5% methyl cellulose to obtain a 10 mg/ml formulation. A clear homogenous suspension was observed. Animals were dosed with Pirfenidone at 100 mg/kg, p.o., b.i.d., from day 14 to 28.

[5] abbreviates: Table 2b, test compound 20 uM, read-out: % GSNOR Inhibition at 20 uM.

Like-named read-outs stand apart in the source and are kept apart here.

T1 sequence (P11766 whole entry): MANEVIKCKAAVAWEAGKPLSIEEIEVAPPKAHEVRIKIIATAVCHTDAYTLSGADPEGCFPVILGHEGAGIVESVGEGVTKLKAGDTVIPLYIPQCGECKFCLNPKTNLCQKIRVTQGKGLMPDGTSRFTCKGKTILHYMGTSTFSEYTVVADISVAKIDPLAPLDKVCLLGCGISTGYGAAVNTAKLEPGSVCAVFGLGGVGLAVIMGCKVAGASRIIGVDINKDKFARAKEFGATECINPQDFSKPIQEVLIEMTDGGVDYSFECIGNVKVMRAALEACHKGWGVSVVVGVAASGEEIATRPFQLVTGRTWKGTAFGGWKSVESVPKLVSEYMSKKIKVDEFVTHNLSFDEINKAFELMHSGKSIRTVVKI

Consider `N#CCCn1c2ccc(-n3ccnc3)cc2c2ccc(CCC(=O)O)cc21` [Compound 26, 3-(imidazol-1(H)-yl)-7-(2-carboxylethyl)-9(H)-(2-cyanoethyl) carbazole], for which the inhibition at 20 µM in assay [1] (setting [5]) was 92.4%. The “LPS/IL6 Lowest tested active” value in assay [2] came to 0.3 mg/kg. Moreover, the IC50 in assay [3] is < 1000 nM.

With `NC(=O)c1ccc(-n2c3ccc(-n4ccnc4)cc3c3ccc(CCC(=O)O)cc32)cc1` [Compound 20], the inhibition at 20 µM in assay [1] (setting [5]) came to 88.9%. In addition, in assay [2], the “LPS/IL6 Lowest tested active” value worked out at 0.3 mg/kg. Also, the IC50 in assay [3] lay within 1000 to 5000 nM.

For the compound `Cc1cc(C(N)=O)ccc1-n1c2ccc(-n3ccnc3)cc2c2ccc(CCC(=O)O)cc21` [Compound 21], the inhibition at 20 µM in assay [1] (setting [5]) was found to be 93.6%. The “LPS/IL6 Lowest tested active” value in assay [2] is on record as 0.3 mg/kg. Also, the IC50 in assay [3] was in the range of 1000 to 5000 nM.

Turning to `N#CCCCCn1c2ccc(-n3ccnc3)cc2c2ccc(CCC(=O)O)cc21` [Compound 31], the inhibition at 20 µM in assay [1] (setting [5]) was determined as 92.9%. Moreover, in assay [2], the “LPS/IL6 Lowest tested active” value came to 0.3 mg/kg. Further, the IC50 in assay [3] was < 1000 nM.

For the compound `Cc1ccc(=O)n(-c2ccccc2)c1` [Pirfenidone, reference compound], the “pulmonary fibrosis (Ashcroft score and percentage collagen proportionate area) vs disease control” value in assay [4] is reported as “notable mitigation of pulmonary fibrosis”.

Regarding `NC(=O)CCn1c2ccc(-n3ccnc3)cc2c2ccc(C(=O)O)cc21` [Compound 10, 9-(3-amino-3-oxopropyl)-6-(1H-imidazo-1-yl)-9H-carbazole-2-carboxylic acid], the inhibition at 20 µM was 85% in assay [1] (Table 2a, test compound 20 μM, pH 7.4, 25° C., read-out: % Inhibit. at 20 μM) and 75% in assay [1] (setting [5]). Further, the “LPS/IL6 Lowest tested active” value in assay [2] is listed as 30 mg/kg. Moreover, in assay [2] (dosed 12 hrs before LPS I.P., serum 6 hrs after LPS), the “IL-6 in serum after LPS (mouse inflammation assay)” value is reported as “active”. The IC50 in assay [3] is < 1000 nM.

The values are drawn from patent US11655244B2, “Carbazole compounds and methods of use thereof” (GSNO Therapeutics, Inc, priority 2017, dated 2023).
